# Measured values published in ChEMBL document CHEMBL2034936, “Discovery and extensive in vitro evaluations of NK-HDAC-1: a chiral histone deacetylase inhibitor as a promising lead” (J Med Chem, 2012).
# Tests used:
# HepG2 = test: cells; format: functional; conditions: Homo sapiens, HepG2, 72 h
# Description: Growth inhibition of human HepG2 cells after 72 hrs by MTT assay
# Histone deacetylase = test: Inhibition of HDAC in human HeLa cell nuclear extracts using Ac-Arg-Gly-Lys(Ac)-AMC substrate by fluorimetry; format: protein assay
# A549 [1] = test: cells; format: functional; conditions: Homo sapiens, A549, 72 h
# Description: Growth inhibition of human A549 cells after 72 hrs by MTT assay
# MDA-MB-231 [2] = test: cells; format: functional; conditions: Homo sapiens, MDA-MB-231, 72 h
# Description: Growth inhibition of human MDA-MB-231 cells after 72 hrs by MTT assay
# K562 [3] = test: cells; format: functional; conditions: Homo sapiens, K562, 72 h
# Description: (§1) Growth inhibition of human K562 cells after 72 hrs by MTS assay
# SW-620 [4] = test: cells; format: functional; conditions: Homo sapiens, SW-620, 72 h
# Description: (§2) Growth inhibition of human SW620 cells after 72 hrs by MTS assay
# COLO 205 [5] = test: cells; format: functional; conditions: Homo sapiens, COLO 205, 72 h
# OVCAR-3 [6] = test: cells; format: functional; conditions: Homo sapiens, OVCAR-3, 72 h
# Description: (§3) Growth inhibition of human OVCAR3 cells after 72 hrs by MTS assay
# PC-3 [7] = test: cells; format: functional; conditions: Homo sapiens, PC-3, 72 h
# Description: (§4) Growth inhibition of human PC3 cells after 72 hrs by MTS assay
# CCRF-CEM = test: Growth inhibition of human CCRF-CEM cells after 72 hrs by MTS assay; format: functional
# HL-60(TB) = test: cells; format: functional; conditions: Homo sapiens, HL-60, 72 h
# Description: Growth inhibition of human HL-60(TB) cells after 72 hrs by MTS assay
# K562 [8] = test: cells; format: functional; conditions: Homo sapiens, K562, 72 h; remark: listed apart in the source
# Description: as §1
# MOLT-4 = test: Growth inhibition of human MOLT4 cells after 72 hrs by MTS assay; format: functional; conditions: MOLT-4, 72 h
# SR = test: Growth inhibition of human SR cells after 72 hrs by MTS assay; format: functional
# A549 [9] = test: cells; format: functional; conditions: Homo sapiens, A549, 72 h; remark: listed apart in the source
# Description: Growth inhibition of human A549/ATCC cells after 72 hrs by MTS assay
# EKVX = test: cells; format: functional; conditions: Homo sapiens, 72 h
# Description: Growth inhibition of human EKVX cells after 72 hrs by MTS assay
# HOP-92 = test: cells; format: functional; conditions: Homo sapiens, HOP-92, 72 h
# Description: Growth inhibition of human HOP92 cells after 72 hrs by MTS assay
# NCI-H226 = test: cells; format: functional; conditions: Homo sapiens, NCI-H226, 72 h
# Description: Growth inhibition of human NCI-H226 cells after 72 hrs by MTS assay
# NCI-H23 = test: cells; format: functional; conditions: Homo sapiens, NCI-H23, 72 h
# Description: Growth inhibition of human NCI-H23 cells after 72 hrs by MTS assay
# NCI-H322M = test: Growth inhibition of human NCI-H322M cells after 72 hrs by MTS assay; format: functional
# NCI-H460 = test: Growth inhibition of human NCI-H460 cells after 72 hrs by MTS assay; format: functional; conditions: NCI-H460, 72 h
# NCI-H522 = test: cells; format: functional; conditions: Homo sapiens, NCI-H522, 72 h
# Description: Growth inhibition of human NCI-H522 cells after 72 hrs by MTS assay
# COLO 205 [10] = test: Growth inhibition of human COLO205 cells after 72 hrs by MTS assay; format: functional; conditions: COLO 205, 72 h
# HCT-116 = test: Growth inhibition of human HCT116 cells after 72 hrs by MTS assay; format: functional; conditions: HCT-116, 72 h
# HCT-15 = test: cells; format: functional; conditions: Homo sapiens, HCT-15, 72 h
# Description: Growth inhibition of human HCT15 cells after 72 hrs by MTS assay
# HT-29 = test: Growth inhibition of human HT-29 cells after 72 hrs by MTS assay; format: functional; conditions: HT-29, 72 h
# KM12 = test: cells; format: functional; conditions: Homo sapiens, KM12, 72 h
# Description: Growth inhibition of human KM12 cells after 72 hrs by MTS assay
# SW-620 [11] = test: cells; format: functional; conditions: Homo sapiens, SW-620, 72 h; remark: listed apart in the source
# Description: as §2
# IGROV-1 = test: cells; format: functional; conditions: Homo sapiens, IGROV-1, 72 h
# Description: Growth inhibition of human IGROV1 cells after 72 hrs by MTS assay
# OVCAR-3 [12] = test: cells; format: functional; conditions: Homo sapiens, OVCAR-3, 72 h; remark: listed apart in the source
# Description: as §3
# OVCAR-4 = test: cells; format: functional; conditions: Homo sapiens, OVCAR-4, 72 h
# Description: Growth inhibition of human OVCAR4 cells after 72 hrs by MTS assay
# OVCAR-5 = test: Growth inhibition of human OVCAR5 cells after 72 hrs by MTS assay; format: functional; conditions: OVCAR-5, 72 h
# OVCAR-8 = test: cells; format: functional; conditions: Homo sapiens, OVCAR-8, 72 h
# Description: Growth inhibition of human OVCAR8 cells after 72 hrs by MTS assay
# cells [13] = format: functional; conditions: Homo sapiens, NCI/ADR-RES, 72 h
# Description: Growth inhibition of human NCI-ADR-RES cells after 72 hrs by MTS assay
# SK-OV-3 = test: cells; format: functional; conditions: Homo sapiens, SK-OV-3, 72 h
# Description: Growth inhibition of human SKOV3 cells after 72 hrs by MTS assay
# PC-3 [14] = test: cells; format: functional; conditions: Homo sapiens, PC-3, 72 h; remark: listed apart in the source
# Description: as §4
# DU-145 = test: cells; format: functional; conditions: Homo sapiens, DU-145, 72 h
# Description: Growth inhibition of human DU145 cells after 72 hrs by MTS assay
# SF-268 = test: cells; format: functional; conditions: Homo sapiens, SF-268, 72 h
# Description: Growth inhibition of human SF268 cells after 72 hrs by MTS assay
# SF-295 = test: cells; format: functional; conditions: Homo sapiens, SF-295, 72 h
# Description: Growth inhibition of human SF295 cells after 72 hrs by MTS assay
# SF-539 = test: cells; format: functional; conditions: Homo sapiens, SF-539, 72 h
# Description: Growth inhibition of human SF539 cells after 72 hrs by MTS assay
# SNB-19 = test: cells; format: functional; conditions: Homo sapiens, SNB-19, 72 h
# Description: Growth inhibition of human SNB19 cells after 72 hrs by MTS assay
# SNB-75 = test: Growth inhibition of human SNB75 cells after 72 hrs by MTS assay; format: functional; conditions: SNB-75, 72 h
# U-251 = test: cells; format: functional; conditions: Homo sapiens, U-251, 72 h
# Description: Growth inhibition of human U251 cells after 72 hrs by MTS assay
# LOX IMVI = test: cells; format: functional; conditions: Homo sapiens, 72 h
# Description: Growth inhibition of human LOXIMVI cells after 72 hrs by MTS assay
# Malme-3M = test: cells; format: functional; conditions: Homo sapiens, 72 h
# Description: Growth inhibition of human MALME-3M cells after 72 hrs by MTS assay
# M14 = test: cells; format: functional; conditions: Homo sapiens, M14, 72 h
# Description: Growth inhibition of human M14 cells after 72 hrs by MTS assay
# MDA-MB-435 = test: cells; format: functional; conditions: Homo sapiens, MDA-MB-435, 72 h
# Description: Growth inhibition of human MDA-MB-435 cells after 72 hrs by MTS assay
# SK-MEL-2 = test: cells; format: functional; conditions: Homo sapiens, SK-MEL-2, 72 h
# Description: Growth inhibition of human SK-MEL-2 cells after 72 hrs by MTS assay
# SK-MEL-28 = test: cells; format: functional; conditions: Homo sapiens, SK-MEL-28, 72 h
# Description: Growth inhibition of human SK-MEL-28 cells after 72 hrs by MTS assay
# SK-MEL-5 = test: cells; format: functional; conditions: Homo sapiens, SK-MEL-5, 72 h
# Description: Growth inhibition of human SK-MEL-5 cells after 72 hrs by MTS assay
# UACC-257 = test: cells; format: functional; conditions: Homo sapiens, UACC-257, 72 h
# Description: Growth inhibition of human UACC257 cells after 72 hrs by MTS assay
# UACC-62 = test: Growth inhibition of human UACC62 cells after 72 hrs by MTS assay; format: functional; conditions: UACC-62, 72 h
# 786-0 = test: cells; format: functional; conditions: Homo sapiens, 786-0, 72 h
# Description: Growth inhibition of human 786-0 cells after 72 hrs by MTS assay
# A498 = test: cells; format: functional; conditions: Homo sapiens, A498, 72 h
# Description: Growth inhibition of human A498 cells after 72 hrs by MTS assay
# ACHN = test: cells; format: functional; conditions: Homo sapiens, 72 h
# Description: Growth inhibition of human ACHN cells after 72 hrs by MTS assay
# RXF 393 = test: cells; format: functional; conditions: Homo sapiens, RXF 393, 72 h
# Description: Growth inhibition of human RXF393 cells after 72 hrs by MTS assay
# SN12C = test: cells; format: functional; conditions: Homo sapiens, 72 h
# Description: Growth inhibition of human SN12C cells after 72 hrs by MTS assay
# TK-10 = test: cells; format: functional; conditions: Homo sapiens, TK-10, 72 h
# Description: Growth inhibition of human TK10 cells after 72 hrs by MTS assay
# UO-31 = test: cells; format: functional; conditions: Homo sapiens, UO-31, 72 h
# Description: Growth inhibition of human UO31 cells after 72 hrs by MTS assay
# MDA-MB-468 = test: cells; format: functional; conditions: Homo sapiens, MDA-MB-468, 72 h
# Description: Growth inhibition of human MDA-MB-468 cells after 72 hrs by MTS assay
# cells [15] = format: functional; conditions: Homo sapiens, Hs-578T, 72 h
# Description: Growth inhibition of human Hs 578T cells after 72 hrs by MTS assay
# BT-549 = test: cells; format: functional; conditions: Homo sapiens, BT-549, 72 h
# Description: Growth inhibition of human BT549 cells after 72 hrs by MTS assay
# T47D = test: cells; format: functional; conditions: Homo sapiens, 72 h
# Description: Growth inhibition of human T47D cells after 72 hrs by MTS assay
# MDA-MB-231 [16] = test: cells; format: functional; conditions: Homo sapiens, MDA-MB-231, 72 h; remark: listed apart in the source
# Description: Growth inhibition of human MDA-MB-231 cells after 72 hrs by MTS assay
# MCF7 = test: cells; format: functional; conditions: Homo sapiens, MCF7, 48 h
# Description: Growth inhibition of human MCF7 cells after 48 hrs by MTT assay
smiles,measurement,setting,value
O=C(/C=C/c1cn(Cc2nc3ccccc3[nH]2)nn1)NO,GI50,HepG2,> 20000 nM
same,IC50,Histone deacetylase,178 nM
same,GI50,A549 [1],> 20000 nM
CCC(C)C(c1nc2ccccc2o1)n1cc(/C=C/C(=O)NO)nn1 (racemic),GI50,HepG2,1700 nM
same,GI50,MDA-MB-231 [2],190 nM
same,IC50,Histone deacetylase,4 nM
same,GI50,A549 [1],520 nM
O=C(/C=C/c1cn(C/C=C/c2ccccc2)nn1)NO,GI50,HepG2,3200 nM
same,GI50,K562 [3],550 nM
same,GI50,SW-620 [4],480 nM
same,GI50,COLO 205 [5],1100 nM
same,GI50,OVCAR-3 [6],1100 nM
same,GI50,PC-3 [7],1300 nM
same,IC50,Histone deacetylase,104 nM
same,GI50,A549 [1],1900 nM
CC(C)CC(c1nc2ccccc2o1)n1cc(/C=C/C(=O)NO)nn1 (racemic),GI50,HepG2,2200 nM
same,GI50,MDA-MB-231 [2],280 nM
same,IC50,Histone deacetylase,19 nM
same,GI50,A549 [1],660 nM
O=C(O)CCC(c1nc2ccccc2o1)n1cc(/C=C/C(=O)NO)nn1 (racemic),GI50,HepG2,> 20000 nM
same,GI50,MDA-MB-231 [2],> 20000 nM
same,IC50,Histone deacetylase,333 nM
same,GI50,A549 [1],> 20000 nM
CC(c1nc2ccccc2o1)n1cc(/C=C/C(=O)NO)nn1 (racemic),GI50,HepG2,2900 nM
same,GI50,MDA-MB-231 [2],1200 nM
same,IC50,Histone deacetylase,86 nM
same,GI50,A549 [1],2400 nM
CC(C)[C@H](c1nc2ccccc2o1)n1cc(/C=C/C(=O)NO)nn1,GI50,CCRF-CEM,350 nM
same,GI50,HL-60(TB),280 nM
same,GI50,K562 [8],280 nM
same,GI50,MOLT-4,300 nM
same,GI50,SR,350 nM
same,GI50,A549 [9],300 nM
same,GI50,EKVX,680 nM
same,GI50,HOP-92,70 nM
same,GI50,NCI-H226,1300 nM
same,GI50,NCI-H23,350 nM
same,GI50,NCI-H322M,250 nM
same,GI50,NCI-H460,390 nM
same,GI50,NCI-H522,130 nM
same,GI50,COLO 205 [10],250 nM
same,GI50,HCT-116,180 nM
same,GI50,HCT-15,960 nM
same,GI50,HT-29,220 nM
same,GI50,KM12,410 nM
same,GI50,SW-620 [11],290 nM
same,GI50,IGROV-1,190 nM
same,GI50,OVCAR-3 [12],470 nM
same,GI50,OVCAR-4,2800 nM
same,GI50,OVCAR-5,400 nM
same,GI50,OVCAR-8,240 nM
same,GI50,cells [13],95 nM
same,GI50,SK-OV-3,260 nM
same,GI50,PC-3 [14],280 nM
same,GI50,DU-145,350 nM
same,GI50,SF-268,630 nM
same,GI50,SF-295,310 nM
same,GI50,SF-539,750 nM
same,GI50,SNB-19,850 nM
same,GI50,SNB-75,410 nM
same,GI50,U-251,340 nM
same,GI50,LOX IMVI,160 nM
same,GI50,Malme-3M,63 nM
same,GI50,M14,410 nM
same,GI50,MDA-MB-435,240 nM
same,GI50,SK-MEL-2,350 nM
same,GI50,SK-MEL-28,520 nM
same,GI50,SK-MEL-5,250 nM
same,GI50,UACC-257,230 nM
same,GI50,UACC-62,400 nM
same,GI50,786-0,340 nM
same,GI50,A498,260 nM
same,GI50,ACHN,470 nM
same,GI50,RXF 393,350 nM
same,GI50,SN12C,790 nM
same,GI50,TK-10,160 nM
same,GI50,UO-31,230 nM
same,GI50,MDA-MB-468,250 nM
same,GI50,cells [15],1300 nM
same,GI50,BT-549,280 nM
same,GI50,T47D,500 nM
same,IC50,Histone deacetylase,31 nM
same,GI50,MDA-MB-231 [16],910 nM
same,GI50,MCF7,450 nM
